# Experimental data taken from PubChem BioAssay (NCI).
#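 Where inhibition never reached the appropriate level, the endpoint shown equals the highest concentration tested. Otherwise, values were interpolated linearly from a five-concentration, 48-hour dose response in 96-well plates. The concentration for 50% growth inhibition is given as GI50. TGI: total growth inhibition.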
# Tests used:
# Assay in all cases: NCI-60 cell line screen, 48 h
# SK-MEL-2 melanoma = test system: SK-MEL-2 melanoma
# NCI/ADR-RES ovarian = test system: NCI/ADR-RES ovarian
# HCT-15 colon = test system: HCT-15 colon
# RXF 393 renal = test system: RXF 393 renal
# CCRF-CEM leukemia = test system: CCRF-CEM leukemia
# SF-539 CNS = test system: SF-539 CNS
# NCI-H522 lung = test system: NCI-H522 lung
# MOLT-4 leukemia = test system: MOLT-4 leukemia
# OVCAR-3 ovarian = test system: OVCAR-3 ovarian
# DU-145 prostate = test system: DU-145 prostate
# HCC-2998 colon = test system: HCC-2998 colon
# UO-31 renal = test system: UO-31 renal
# OVCAR-5 ovarian = test system: OVCAR-5 ovarian
# PC-3 prostate = test system: PC-3 prostate
# HOP-62 NSCLC = test system: HOP-62 NSCLC
# OVCAR-4 ovarian = test system: OVCAR-4 ovarian
# A498 renal = test system: A498 renal
# HOP-92 NSCLC = test system: HOP-92 NSCLC
# UACC-62 melanoma = test system: UACC-62 melanoma
# SK-MEL-28 melanoma = test system: SK-MEL-28 melanoma
# SF-268 CNS = test system: SF-268 CNS
# A549 NSCLC = test system: A549 NSCLC
# SN12C renal = test system: SN12C renal
# SW-620 colon = test system: SW-620 colon
# CAKI-1 renal = test system: CAKI-1 renal
# M14 melanoma = test system: M14 melanoma
# IGROV1 ovarian = test system: IGROV1 ovarian
# TK-10 renal = test system: TK-10 renal
# SK-MEL-5 melanoma = test system: SK-MEL-5 melanoma
# HCT-116 colon = test system: HCT-116 colon
# SK-OV-3 ovarian = test system: SK-OV-3 ovarian
# NCI-H226 lung = test system: NCI-H226 lung
# OVCAR-8 ovarian = test system: OVCAR-8 ovarian
# U251 CNS = test system: U251 CNS
# NCI-H23 lung = test system: NCI-H23 lung
# HT29 colon = test system: HT29 colon
# SNB-75 CNS = test system: SNB-75 CNS
# KM12 colon = test system: KM12 colon
# HL-60(TB) leukemia = test system: HL-60(TB) leukemia
# UACC-257 melanoma = test system: UACC-257 melanoma
# ACHN renal = test system: ACHN renal
# NCI-H460 lung = test system: NCI-H460 lung
# LOX IMVI melanoma = test system: LOX IMVI melanoma
# MDA-MB-435 = test system: MDA-MB-435
# K-562 leukemia = test system: K-562 leukemia
# SNB-19 CNS = test system: SNB-19 CNS
# MALME-3M melanoma = test system: MALME-3M melanoma
# 786-0 renal = test system: 786-0 renal
# RPMI-8226 leukemia = test system: RPMI-8226 leukemia
# MCF7 breast = test system: MCF7 breast
# BT-549 breast = test system: BT-549 breast
# HS 578T breast = test system: HS 578T breast
# SR leukemia = test system: SR leukemia
# COLO 205 colon = test system: COLO 205 colon
# SF-295 CNS = test system: SF-295 CNS
smiles,measurement,setting,value
O=C(CCCN1CCOCC1)Nc1ccc(Cn2nnc3c2C(=O)c2nnn(Cc4ccc(NC(=O)CCCN5CCOCC5)cc4)c2C3=O)cc1,GI50,SK-MEL-2 melanoma,2.04 µM
same,TGI,SK-MEL-2 melanoma,4.15 µM
same,GI50,NCI/ADR-RES ovarian,> 100 µM
same,TGI,NCI/ADR-RES ovarian,> 100 µM
same,GI50,HCT-15 colon,> 100 µM
same,TGI,HCT-15 colon,> 100 µM
same,GI50,RXF 393 renal,4.33 µM
same,TGI,RXF 393 renal,38.9 µM
same,GI50,CCRF-CEM leukemia,1.81 µM
same,TGI,CCRF-CEM leukemia,6.32 µM
same,GI50,SF-539 CNS,2.17 µM
same,TGI,SF-539 CNS,4.71 µM
same,GI50,NCI-H522 lung,1.38 µM
same,TGI,NCI-H522 lung,3.59 µM
same,GI50,MOLT-4 leukemia,1.61 µM
same,TGI,MOLT-4 leukemia,4.85 µM
same,GI50,OVCAR-3 ovarian,0.348 µM
same,TGI,OVCAR-3 ovarian,1.54 µM
same,GI50,DU-145 prostate,7.3 µM
same,TGI,DU-145 prostate,> 100 µM
same,GI50,HCC-2998 colon,2.62 µM
same,TGI,HCC-2998 colon,5.79 µM
same,GI50,UO-31 renal,> 100 µM
same,TGI,UO-31 renal,> 100 µM
same,GI50,OVCAR-5 ovarian,> 100 µM
same,TGI,OVCAR-5 ovarian,> 100 µM
same,GI50,PC-3 prostate,3.67 µM
same,TGI,PC-3 prostate,> 100 µM
same,GI50,HOP-62 NSCLC,> 100 µM
same,TGI,HOP-62 NSCLC,> 100 µM
same,GI50,OVCAR-4 ovarian,1.25 µM
same,TGI,OVCAR-4 ovarian,2.51 µM
same,GI50,A498 renal,> 100 µM
same,TGI,A498 renal,> 100 µM
same,GI50,HOP-92 NSCLC,2.54 µM
same,TGI,HOP-92 NSCLC,5.04 µM
same,GI50,UACC-62 melanoma,2.06 µM
same,TGI,UACC-62 melanoma,5.86 µM
same,GI50,SK-MEL-28 melanoma,3.93 µM
same,TGI,SK-MEL-28 melanoma,> 100 µM
same,GI50,SF-268 CNS,3.21 µM
same,TGI,SF-268 CNS,12.1 µM
same,GI50,A549 NSCLC,> 100 µM
same,TGI,A549 NSCLC,> 100 µM
same,GI50,SN12C renal,1.79 µM
same,TGI,SN12C renal,3.67 µM
same,GI50,SW-620 colon,2.85 µM
same,TGI,SW-620 colon,> 100 µM
same,GI50,CAKI-1 renal,> 100 µM
same,TGI,CAKI-1 renal,> 100 µM
same,GI50,M14 melanoma,4.59 µM
same,TGI,M14 melanoma,43.6 µM
same,GI50,IGROV1 ovarian,1.95 µM
same,TGI,IGROV1 ovarian,4.62 µM
same,GI50,TK-10 renal,> 100 µM
same,TGI,TK-10 renal,> 100 µM
same,GI50,SK-MEL-5 melanoma,1.52 µM
same,TGI,SK-MEL-5 melanoma,3.55 µM
same,GI50,HCT-116 colon,3 µM
same,TGI,HCT-116 colon,11.3 µM
same,GI50,SK-OV-3 ovarian,> 100 µM
same,TGI,SK-OV-3 ovarian,> 100 µM
same,GI50,NCI-H226 lung,> 100 µM
same,TGI,NCI-H226 lung,> 100 µM
same,GI50,OVCAR-8 ovarian,3.78 µM
same,TGI,OVCAR-8 ovarian,> 100 µM
same,GI50,U251 CNS,1.95 µM
same,TGI,U251 CNS,3.74 µM
same,GI50,NCI-H23 lung,2.33 µM
same,TGI,NCI-H23 lung,5.63 µM
same,GI50,HT29 colon,3.31 µM
same,TGI,HT29 colon,8.9 µM
same,GI50,SNB-75 CNS,1.83 µM
same,TGI,SNB-75 CNS,3.24 µM
same,GI50,KM12 colon,6.99 µM
same,TGI,KM12 colon,> 100 µM
same,GI50,HL-60(TB) leukemia,1.51 µM
same,TGI,HL-60(TB) leukemia,4.91 µM
same,GI50,UACC-257 melanoma,1.7 µM
same,TGI,UACC-257 melanoma,3.23 µM
same,GI50,ACHN renal,> 100 µM
same,TGI,ACHN renal,> 100 µM
same,GI50,NCI-H460 lung,2.07 µM
same,TGI,NCI-H460 lung,> 100 µM
same,GI50,LOX IMVI melanoma,2.01 µM
same,TGI,LOX IMVI melanoma,6.3 µM
same,GI50,MDA-MB-435,1.65 µM
same,TGI,MDA-MB-435,3.08 µM
same,GI50,K-562 leukemia,4.28 µM
same,TGI,K-562 leukemia,> 100 µM
same,GI50,SNB-19 CNS,1.84 µM
same,TGI,SNB-19 CNS,3.59 µM
same,GI50,MALME-3M melanoma,1.21 µM
same,TGI,MALME-3M melanoma,2.79 µM
same,GI50,786-0 renal,> 100 µM
same,TGI,786-0 renal,> 100 µM
same,GI50,RPMI-8226 leukemia,2.18 µM
same,TGI,RPMI-8226 leukemia,7.48 µM
same,GI50,MCF7 breast,1.03 µM
same,TGI,MCF7 breast,2.77 µM
same,GI50,BT-549 breast,4.68 µM
same,TGI,BT-549 breast,18.4 µM
same,GI50,HS 578T breast,2.79 µM
same,TGI,HS 578T breast,7.76 µM
same,GI50,SR leukemia,2.05 µM
same,TGI,SR leukemia,7.86 µM
same,GI50,COLO 205 colon,0.982 µM
same,TGI,COLO 205 colon,2.43 µM
same,GI50,SF-295 CNS,> 100 µM
same,TGI,SF-295 CNS,> 100 µM
